Experimental data reported in patent US20100316573A1, “Organic Compounds” (priority 2006, published 2010).

Tested on: TNFα mRNA in SKOV-3 cells
Assay: TNFα mRNA induction in SKOV-3 cells (FIG. 2), fold increase relative to untreated cells
Description: Each of the tumor cell lines indicated was treated for 18 hrs with 1 uM of the Compound II. mRNA was harvested using Qiagen's TurboCapture mRNA isolation kit. cDNA was synthesized using BioRad iScript cDNA synthesis kit. Primers specific for the cDNA encoding TNFalpha were then used to PCR amplify TNF cDNA from each sample using Applied. Biosystems TaqMan Universal PCR Master Mix. Data is normalized to B-Actin mRNA and expressed as relative levels of TNF mRNA.
The graph depicting TNF induction by compound II includes nine bars correlating to the fold increase of TNF relative to untreated cells.

## CC[C@@H](c1cncc(C(=O)c2ccc(F)cc2)c1)N(CC)C(=O)[C@@H](NC(=O)[C@H](C)NC)C1CCCCC1 [Compound III]
  induction of TNFα mRNA (in words): induce TNFα mRNA in SKOV-3 cells in a dose dependent manner
100 nM compound + PI (MG132)
  fold increase of TNF relative to untreated cells: 15-20 fold increase
100 nM compound + ZVAD
  fold increase of TNF relative to untreated cells: 85-95 fold increase
100 nM compound alone
  fold increase of TNF relative to untreated cells: 85-95 fold increase
1000 nM compound + PI (MG132)
  fold increase of TNF relative to untreated cells: 30-40 fold increase
1000 nM compound + ZVAD
  fold increase of TNF relative to untreated cells: 75-80 fold increase
1000 nM compound + sTNFR (soluble TNFα receptor)
  fold increase of TNF relative to untreated cells: 0-1 fold increase
1000 nM compound alone
  fold increase of TNF relative to untreated cells: 105-115 fold increase
100 nm compound + sTNFR (soluble TNFα receptor)
  fold increase of TNF relative to untreated cells: 0-3 fold increase
